Reference: article PMC5059567 (International Journal of Endocrinology, 2016)
Each block holds one molecule with its values, some of them ahead of it.

Columns and labels:
patients affected by ATC [1] = assay: Safety/toxicity in the trial (Common Toxicity Criteria, serum biochemistry); assay type: in vivo, human; details: ATC patients enrolled in the study
Protocol: Hemogram, serum biochemistry, and electrolyte levels were measured before each chemotherapy cycle and when clinically indicated; toxicity was evaluated according to the Common Toxicity Criteria (CTC). […] In the presence of Grade 4 toxicity or in case of severe allergic reaction, treatment was definitively stopped.

patients affected by ATC [2] = assay: Randomized phase II/III trial: overall survival and progression-free survival; assay type: in vivo, human; details: TAX 80 mg/m^2 weekly i.v. with or without VPA 1,000 mg/day p.o.
Protocol: The diagnosis was obtained by cytological examination of specimens following fine-needle aspiration and was confirmed by histologic examination in all patients who underwent surgery. Examination was performed by two different pathologists with proven experience in thyroid cancer. Inclusion criteria were (a) patients with radiologically or clinically confirmed disease progression during or after multimodal therapy (surgery, if performed, first-line systemic chemotherapy with doxorubicin and cisplatin, and external beam radiation (EBR)); (b) patients not eligible for surgery or EBR because of tumor local invasion or severe comorbidities. […] Patients or their legal representatives needed to be able to read, understand, and provide written informed consent to participate in the trial, according to the Declaration of Helsinki.
In the absence of disease progression, patients of both groups were treated up to 18 chemotherapy cycles. Primary outcomes were (1) overall survival and (2) disease progression, evaluated in terms of progression-free survival (PFS). The extent of thyroid neoplasia and secondary lesions were assessed at the beginning of treatment by computer tomography (CT) scans of head, neck, chest, and abdomen. Local recurrence or lymph node metastases were evaluated also by high definition neck ultrasonography (US). […]

[3] = Pharmacokinetics of TAX in plasma (noncompartmental, HPLC-UV); assay type: in vivo, human
Protocol: Blood samples were centrifuged immediately for 10 min at 1,000 ×g at room temperature and the resulting plasma was frozen and stored at −80°C until analysis.
Briefly, a volume of 200 μL of acetonitrile, 300 μL of deionized water, and 5 mL of tertbutylmethylether was added to 100 μL of plasma samples in borosilicate glass tubes. The mixture was vortexed for 30 sec and centrifuged at 2,500 ×g for 15 min. Upon centrifugation, 3 mL of the organic layer was transferred to a clean glass tube and evaporated to dryness under nitrogen. The residue was then reconstituted with 200 μL of 60% acetonitrile in deionized water and mixed on a vortex mixer for 90 sec; then 100 μL of the reconstituted sample was injected into the HPLC system equipped with a Symmetry C18 column (250 × 4.6 mm i.d., particle size 5 μm) and a Symmetry C18 guard column supplied by Waters (Vimodrone, Milan, Italy). Chromatographic analysis was performed at room temperature (20 ± 2°C) by isocratic elution with a mobile phase consisting in a mixture of acetonitrile—0.1% phosphoric acid in deionized water (60 : 40, v/v) (Milli-Q Plus System, Millipore, Milford, MA, USA) at a flow-rate of 1.0 mL/min.
The Mann–Whitney nonparametric test was used to compare pharmacokinetic values of the two different groups of patients; statistical evaluation was performed using Instat 3.05 software (Graphpad, San Diego, USA).

ATC cell lines = details: combination with TAX; cited from earlier work
P-gp = details: preclinical in vitro and in vivo experiments; cited from earlier work
CYP3A4 = details: preclinical in vitro; read-out: Ki (CYP3A4 inhibition); cited from earlier work
Serum levels of VPA = assay type: in vivo, human; details: oral 1,000 mg valproate daily, after two weeks of treatment; range 50–72
Protocol: Drug measurement was performed using the Dimension Vista System (Siemens, Healthcare, Erlangen, Germany). The therapeutic range was […].

ATC = ATC patients; cited from earlier work
[4] = human, intravenous, 80 mg/m^2, plasma, first chemotherapy cycle, 10 patients per group

SMILES: CC(=O)O[C@H]1C(=O)[C@@]2(C)[C@H]([C@H](OC(=O)c3ccccc3)[C@]3(O)C[C@H](OC(=O)[C@H](O)[C@@H](NC(=O)c4ccccc4)c4ccccc4)C(C)=C1C3(C)C)[C@]1(OC(C)=O)CO[C@@H]1C[C@@H]2O [TAX, paclitaxel]
severe adverse effect (patients affected by ATC [1]): No severe adverse effect
Median survival (patients affected by ATC [2]; Kaplan-Meier from enrollment, P = 0.9): 148 days
Median time to progression (patients affected by ATC [2]; P = 0.6): 51 days
Cmax [3, 4]: 1160 ng/mL
Vd [3, 4]: 52.1 L
clearance [3, 4]: 664 mL/min
half-life [3, 4]: 2.03 h
k el [3, 4]: 9.44e-05 s⁻¹

valproate blood levels (Serum levels of VPA): 67 µg/mL
SMILES: CCCC(CCC)C(=O)O [VPA, valproic acid]
VPA dose at which enhancement of TAX cytostatic and cytotoxic activity was reached (ATC cell lines): 0.7 mM
P-gp expression (P-gp): induce the overexpression

SMILES: COc1ccc(C[C@@H](O)c2cc(OC)c(OC)c(OC)c2)cc1O [combretastatin]
median survival reported in clinical trials (ATC): 5.2 months

SMILES: Cc1ccc(Nc2nccc(N(C)c3ccc4c(C)n(C)nc4c3)n2)cc1S(N)(=O)=O [pazopanib]
median survival reported in clinical trials (ATC): 111 days

SMILES: CNC(=O)c1cc(Oc2ccc(NC(=O)Nc3ccc(Cl)c(C(F)(F)F)c3)cc2)ccn1 [sorafenib]
median survival reported in clinical trials (ATC): 3.9 months
